Laboratory results from PMC13077603, “Fluorine‐18‐Labeled Nucleotide Analogs Targeting Ecto‐5'‐Nucleotidase (CD73) for Positron Emission Tomography Imaging of Solid Tumors” (Angewandte Chemie (International Ed. in English), 2026).

System: MDA‐MB‐231 tumor
Test: PET imaging in MDA-MB-231 breast cancer xenograft model
Type: in vivo, NSG mice
Protocol: Given the specificity of [^18F]1 and [^18F]2 and the promising in vivo biodistribution profile of [^18F]1, we established a small‐animal human breast tumor xenograft model in NSG mice subcutaneously implanted with MDA‐MB‐231 cells. […] For blocking studies, PSB‐12651 (15, Figure 6) or unlabeled 1 were used.
FIGURE 6 PET imaging data in an MDA‐MB‐231 tumor mouse model. (A). PET images, CT scans, and merged images of [^18F]2 in the MDA‐MB‐231 tumor mouse model 90 min after tracer injection. White arrows mark the tumor positions. (B). Quantitative PET analysis of [^18F]2 uptake: activity concentration of [^18F]2 in muscle and tumor tissues 90 min after tracer injection (left) and respective tumor‐to‐muscle ratio (right, n = 5 tumors). (C). PET‐CT images of [^18F]1 and [^18F]FDG in the MDA‐MB‐231 tumor mouse model, 260 min ([^18F]1), or 75 min ([^18F]FDG) after injection. […] White arrows mark the positions of tumors. (D). Quantitative PET analysis of [^18F]1 uptake: activity concentration of [^18F]1 and [^18F]FDG in muscle and tumor tissues (left) and tumor‐to‐muscle ratios (right) after 260 min. [^18F]1: n = 18 tumors, [^18F]1 plus unlabeled 1 block: n = 8 tumors, [^18F]1 plus compound 15 block: n = 6 tumors, [^18F]FDG: n = 18 tumors E. Ex vivo analysis of [^18F]1 uptake as measured by gamma counter: activity concentrations of [^18F]1 in muscle and tumor tissues after 260 min without and with blocking (left) and tumor‐to‐muscle ratios (right). [^18F]1: n = 6 tumors, [^18F]1 plus unlabeled 1 block: n = 6 tumors, [^18F]1 plus compound 15 block: n = 5 tumors.^# relative to the respective muscle, *relative to [^18F]1 without blocker, relative to the unblocked tumor; *<0.05; **<0.01, ***<0.001,^#<0.05; ^## <0.01, ^###<0.001, <0.05; <0.01, <0.001, ns: non‐significant, unpaired t‐test.
MDA-MB-231 cells were cultivated in DMEM/GlutaMAX, supplemented with 10 % fetal calf serum, 100 U/mL penicillin, and 100 µg/mL streptomycin and L-glutamine to a final concentration of 8 mmol/L. AsPC-1 cells were cultivated in RPMI, supplemented with 10 % fetal calf serum, 100 U/mL penicillin, and 100 µg/mL streptomycin and L-glutamine to a final concentration of 8 mmol/L. 5 x 10^6 MDA-MB-231 or 1x 10^6 AsPC-1 cells were injected subcutaneously into the shoulder region of 7 to 12 weeks old NSG (NOD.Cg-Prkdc^scid Il2rg^tm1Wjl/SzJ) mice (Charles River Laboratories). Two tumors were inoculated per animal, and growth was followed by digital caliper measurements (volume = ½ (length * width^2)).
Adult C57bl/6 (biodistribution study, 19.8±1.3 g) or tumor-bearing NSG mice (22.2±2.2 g) were anesthetized by isoflurane/O2, and one lateral tail vein was cannulated using a 27 G needle. A respective radiotracer (~ 390 kBq/g body weight) was injected as a bolus via the tail vein, and subsequent PET scanning was performed. A ~1000-fold excess of unlabeled JMS0414 (14 for [^18F]MRS-4648 ([^18F]2)), unlabeled PSB-19427 (1), or PSB-12651 (15) (for [^18F]PSB-19427 ([^18F]1)) was injected into a subgroup of tumor-bearing mice 10 min before radiotracer injection in the blocking studies. PET imaging studies were carried out using a submillimeter high resolution (0.7 mm full width at half-maximum) small animal scanner (32 module quadHIDAC, Oxford Positron Systems Ltd., Oxford, UK) with a uniform spatial resolution (<1 mm) over a large cylindrical field (165 mm diameter, 280 mm axial length). […]

| Muscle uptake (MDA‐MB‐231 model, PET, after 260 min) | Tumor uptake (MDA‐MB‐231 tumor, PET, after 260 min) | Tumor accumulation (MDA‐MB‐231 model, 90 min PET) | SMILES |
| --- | --- | --- | --- |
| 0.86% ± 0.24 % ID/mL | 3.60% ± 1.27 %ID/mL | – | CCCN(Cc1ccc(-c2cn(CCF)nn2)cc1)c1nc(Cl)nc2c1ncn2[C@@H]1O[C@H](COP(=O)(O)CP(=O)(O)O)[C@@H](O)[C@H]1O [compound 1] |
| – | – | very low tumor accumulation | Cn1c(=O)n([C@@H]2O[C@H](COP(=O)(O)CP(=O)(O)O)[C@@H](O)[C@H]2O)cc/c1=N/OCc1ccc(-c2cn(CC[18F])nn2)cc1 [[^18F]2, [^18F]-{[(2R,3S,4R,5R)-5-(4-{[(4-{1-[2-(fluoro)ethyl]-1H-1,2,3-triazol-4-yl}benzyl)-oxy]imino}-3-methyl-2-oxo-3,4-dihydropyrimidin-1(2H)-yl)-3,4-dihydroxytetra-hydrofuran-2-yl]methoxy}methylenebisphosphonic acid] |
